# Assays:
# MDA-MB-231 cells = assay: Aldolase A secretion and expression in MDA-MB-231 cells treated with purified azurin; assay type: cell-based, human; details: MDA-MB-231, purified azurin 100 nM, 10 μM, 1 mM, 30 min
# Procedure: FIG. 18A-18G: Induction of aldolase A secretion by host cells in the presence of P. aeruginosa. 18A. […] Aldolase secretion varied between the co-cultures with cancer and normal cells. […] 18B Correlation between the aldolase A and azurin levels in co-cultures of P. aeruginosa with cancer or normal cells. […] Secretion of aldolase into the culture supernatant was assessed by western blot analysis. 18D P. aeruginosa (OD=0.3) was treated with purified aldolase A protein at concentrations of 1 nM, 10 nM, 100 nM, and 1 μM for 30 min. […] MDA-MB-231 (18E) and Mel-2 (18F) cells were treated with purified azurin protein at concentrations of 100 nM, 10 μM, and 1 mM for 30 min. […] 18G Aldolase A secretion in the presence of P. aeruginosa is distance-dependent. […]
# Aldolase A gene expression in MDA-MB-231 (black bars) and Mel-2 (white bars) cells was determined by RT-PCR (22A). […] 22B: Intracellular levels of aldolase A were assessed by western blot analysis with an anti-aldolase A antibody. […]
# Western blotting: After running the NuPAGE, proteins were transferred to PVDF membranes (BioRad Laboratories Inc, Hercules, CA) which were blocked in SuperBlock (T20 TBS buffer, Thermo Fisher) for one hour. […] The signal was detected using enhanced chemiluminescence (ECL, Thermo Fisher Scientific). Quantitative analysis of the bands was performed with a computer-assisted imaging densitometer (UN-SCAN-IT gel version 5.1). […]
# [1] = tested on: spontaneous mammary tumors; assay type: in vivo, MMTV-PyMT transgenic mice
# Excerpt: FIG. 26A-26H: Azurin-producing P. aeruginosa in human tumors. The azurin-encoding gene (azu) was detected in tumors from patients with breast cancer and melanoma. It was amplified by PCR with P. aeruginosa azu-specific primers and confirmed by DNA sequencing. […] In melanoma (26A), 27.6% (8 of 29) of primary tumors and 5.9% (2 of 34) of metastatic tumors were azu positive (P<0.05). In breast cancer (26B), 22.7% (5 of 22) of primary tumors and 14.3% (2 of 14) of metastatic tumors were azu positive (P>0.05). In addition, frozen tumor samples were processed for immunogold transmission electron microscopy (TEM) by using anti-P. aeruginosa and anti-azurin antibodies. […] Magnification: ×3000. […] Survival analysis of patients with azu-positive vs. azu-negative primary melanoma (26E, P<0.01) and primary breast cancer (26F, P<0.05) tumors. 26G—Hemizvgous MMTV-PyMT transgenic mice were injected with either PBS control or 2.5 mg/kg azurin (intraperitoneally, 3× weekly) for 2 months. The mean+SE values of tumor volume were calculated. h Tumor-free survival curve was generated with the PBS control and 2.5 mg/kg azurin groups of MMTV-PyMT transgenic mice. Median tumor-free survival of the PBS control and azurin-treatment groups was 67 and 72 days, respectively. P=0.015
# FIG. 29A-29C: Effect of azurin from P. aeruginosa in a transgenic animal model. 29A. Near-infrared red (NIR) dye-conjugated azurin or PBS was injected i.v. into transgenic mice that spontaneously develop mammary tumors. Twenty-four hours after azurin injection, mice were imaged with a photodynamic eye (PDE) system (left: photographic image, right: NIR fluorescence image at 800 nm). 29B. At the end of the study, the tumors were resected.
# Effect of azurin on transgenic mice: Hemizygous MMTV-PyMT (mouse mammary tumor virus-polyoma middle tumor-antigen) female mice were obtained from The Jackson Laboratory. […] In order to reach this level of azurin in mouse (25 g-body weight, 2 ml total blood volume), azurin does at 2.5 mg/kg was determined. Tumor volume and body weights were determined three times weekly. […]
substance,measurement,setting,value
azurin: 14 kDa periplasmic copper protein of 128 amino acids from P. aeruginosa; purified recombinant,aldolase A gene expression and intracellular levels,MDA-MB-231 cells,without increasing gene expression or intracellular levels of aldolase A
same,aldolase A secretion into culture medium (western blot),MDA-MB-231 cells,secreted a considerable amount of human aldolase A
same,tumor-free survival,[1]; 2.5 mg/kg azurin i.p. 3× weekly,significantly extended
same,tumor growth (tumor volume),"[1]; 2.5 mg/kg azurin i.p. 3× weekly, 2 months",significantly inhibited
same,Median tumor-free survival,"[1]; 2.5 mg/kg azurin intraperitoneally, 3× weekly",72 days

# — US20250179126A1, “A NOVEL PEPTIDE FROM A PHOTOSYNTHETIC BACERIUM DIRECTLY TARGETS MITOCHONDRIA TO TRIGGER APOPTOSIS IN ADVANCED PROSTATE CANCER CELLS” (priority 2022, published 2025)
